In patent EP2892896B1 (Bristol-Myers Squibb Company, priority 2012, dated 2014) one finds Ki data, which are given here for 47 compounds.

Each structure is given as a SMILES string.

The test deals with T1, human melanin concentrating hormone receptor (MCHR1) (Homo sapiens, UniProt Q99705, A5T/E4Q).
T1 construct: expressed in transfected cells; host or cells: HEK-293 (stably transfected), membranes
Put plainly: Radioligand binding assay for assessment of MCHR1 activity. To be noted: membranes from HEK-293 cells expressing a mutated (E4Q, A5T) hMCHR1 receptor; competition with 0.06 - 0.1 nM [Phe13, [125I]Tyr19]-MCH; 90 min. The protocol:
Radioligand Binding Assay for Assessment of MCHR1 Activity
An in vitro binding assay was used to determine the compound Ki value or ability to antagonize binding of a peptide agonist to the human melanin concentrating hormone receptor (MCHR1). […] Binding experiments were carried out with 0.5-1.0 µg of membrane protein incubated in a total of 0.2 mL in 25 mM HEPES (pH 7.4) with 10 mM MgCl2, 2 mM EGTA, and 0.1% BSA (Binding Buffer) for 90 min. For competition binding assays, reactions were carried out in the presence of with 0.06 - 0.1 nM [Phe^13, [^125I]Tyr^19]-MCH and increasing concentrations of unlabeled test molecules. […] Filters were dried, 0.05 mL MicroScint 20 was added to each well and radioactivity was subsequently quantified by scintillation counting on a TOPCOUNT® microplate scintillation counter (Packard). Inhibitory constants were determined by nonlinear least squares analysis using a four parameter logistic equation.

T1 sequence (Q99705 whole entry E4Q/A5T): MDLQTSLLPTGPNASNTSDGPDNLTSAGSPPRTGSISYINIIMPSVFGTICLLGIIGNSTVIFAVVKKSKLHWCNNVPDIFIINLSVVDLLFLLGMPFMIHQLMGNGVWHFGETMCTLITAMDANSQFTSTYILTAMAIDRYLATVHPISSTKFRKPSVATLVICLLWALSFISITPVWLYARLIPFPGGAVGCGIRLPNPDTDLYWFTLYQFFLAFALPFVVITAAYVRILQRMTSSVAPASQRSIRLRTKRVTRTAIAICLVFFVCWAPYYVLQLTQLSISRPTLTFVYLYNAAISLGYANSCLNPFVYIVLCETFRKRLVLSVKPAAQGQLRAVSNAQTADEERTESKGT

Take `CCS(=O)(=O)C[C@@H](O)COc1ccc(N2CCC(Oc3ccc(OC(F)(F)F)cc3)C2=O)cc1OC` (some centres unmarked) [Example 51]: the Ki was determined as 78 nM.

For `CCS(=O)(=O)C[C@@H](O)COc1ccc(N2CCC(Oc3ccc(C4CC4)cc3)C2=O)cc1OC` (some centres unmarked) [Example 52], the inhibition constant Ki came out at 16 nM.

The compound `CCS(=O)(=O)C[C@@H](O)COc1ccc(N2CCC(Oc3ccc(C(F)(F)F)cc3)C2=O)cc1OC` (some centres unmarked) [Example 53] yielded a Ki of 109 nM.

`CCS(=O)(=O)C[C@@H](O)COc1ccc(N2CCC(Oc3ccc(-c4ccc(F)cc4)cc3)C2=O)cc1OC` (some centres unmarked) [Example 54] returned a Ki of 21 nM.

Regarding `CCS(=O)(=O)C[C@@H](O)COc1ccc(N2CCC(Oc3ccc(-c4cccc(F)c4)cc3)C2=O)cc1OC` (some centres unmarked) [Example 55], the affinity corresponds to a Ki of 38 nM.

Take `CCS(=O)(=O)C[C@@H](O)COc1ccc(N2CCC(Oc3ccc(OC4CC4)cc3)C2=O)cc1OC` (some centres unmarked) [Example 56]: affinity was put at a Ki of 71 nM.

The compound `COc1cc(N2CCC(Oc3ccc(-c4ccccc4)cc3)C2=O)ccc1OCC1(O)CCS(=O)(=O)CC1` (centres unmarked) [Example 57] displayed a Ki of 2 nM.

`COc1cc(N2CCC(Oc3ccc(-c4ccccc4)cc3)C2=O)ccc1OC[C@H](O)CS(C)(=O)=O` (stereo partly drawn) [Example 58, 3-(Biphenyl-4-yloxy)-1-(4-((S)-2-hydroxy-3-(methylsulfonyl)propoxy)-3-methoxyphenyl)pyrrolidin-2-one] yielded a Ki of 9 nM.

In turn, `COc1cc(N2CCC(Oc3ccc(-c4ccc(F)cc4)cc3)C2=O)ccc1OC[C@H](O)CS(C)(=O)=O` (some centres unmarked) [Example 59] had a Ki of 18 nM.

`COc1cc(N2CCC(Oc3ccc(C4CC4)cc3)C2=O)ccc1OC[C@H](O)CS(C)(=O)=O` (some centres unmarked) [Example 60] yielded a Ki of 17 nM.

In turn, `COc1cc(N2CCC(Oc3ccc(OC(F)(F)F)cc3)C2=O)ccc1OC[C@H](O)CS(C)(=O)=O` (some centres unmarked) [Example 61] gave an inhibitory constant (Ki) of 65 nM.

`COc1cc(N2CCC(Oc3ccc(-c4ccccc4)cc3)C2=O)ccc1OC[C@@H](O)CS(C)(=O)=O` (some centres unmarked) [Example 62]: affinity was put at a Ki of 11 nM.

Compound `COc1cc(N2CCC(Oc3ccc(-c4ccc(F)cc4)cc3)C2=O)ccc1OC[C@@H](O)CS(C)(=O)=O` (some centres unmarked) [Example 63] yielded an inhibition constant (Ki) of 38 nM.

The compound `COc1cc(N2CCC(Oc3ccc(C4CC4)cc3)C2=O)ccc1OC[C@@H](O)CS(C)(=O)=O` (some centres unmarked) [Example 64] gave a Ki of 32 nM.

Regarding `COc1cc(N2CCC(Oc3ccc(OC(F)(F)F)cc3)C2=O)ccc1OCCS(C)(=O)=O` (centres unmarked) [Example 65, 1-(3-Methoxy-4-(2-(methylsulfonyl)ethoxy)phenyl)-3-(4-(trifluoromethoxy)phenoxy)pyrrolidin-2-one], the Ki amounted to 8 nM.

Turning to `COc1cc(N2CCC(Oc3ccc(-c4ccccc4)cc3)C2=O)ccc1OCCS(C)(=O)=O` (centres unmarked) [Example 66], the affinity corresponds to a Ki of 2 nM.

With `COc1cc(N2CCC(Oc3ccc(-c4ccccc4F)cc3)C2=O)ccc1OCCS(C)(=O)=O` (centres unmarked) [Example 67, 3-(2'-Fluorobiphenyl-4-yloxy)-1-(3-methoxy-4-(2-(methylsulfonyl)ethoxy)phenyl)pyrrolidin-2-one], the Ki is 6 nM.

As for `COc1cc(N2CCC(Oc3ccc(-c4cccc(F)c4)cc3)C2=O)ccc1OCCS(C)(=O)=O` (centres unmarked) [Example 68], the affinity corresponds to a Ki of 5 nM.

In turn, `COc1cc(N2CCC(Oc3ccc(C4CC4)cc3)C2=O)ccc1OCCS(C)(=O)=O` (centres unmarked) [Example 70] returned a Ki of 7 nM.

In turn, `COc1cc(N2CC[C@@H](Oc3ccc(C4CC4)cc3)C2=O)ccc1OCCS(C)(=O)=O` [Example 71, (R)-3-(4-Cyclopropylphenoxy)-1-(3-methoxy-4-(2-(methylsulfonyl)ethoxy)phenyl)pyrrolidin-2-one] yielded an inhibition constant (Ki) of 3 nM.

`CS(=O)(=O)CCOc1ccc(N2CCC(Oc3ccc(-c4ccccc4)cc3)C2=O)cc1OCCF` (centres unmarked) [Example 72] returned a Ki of 7 nM.

Regarding `COc1cc(N2CC[C@H](Oc3ccc(C4CC4)cc3)C2=O)ccc1OCCS(C)(=O)=O` [Example 73], the Ki amounted to 87 nM.

`COc1cc(N2CCC(Oc3ccc(C4CC4)cc3)C2=O)ccc1OCCS(=O)(=O)CC(C)(C)O` (centres unmarked) [Example 74]: the Ki was 64 nM.

Turning to `COc1cc(N2CCC(Oc3ccc(-c4ccccc4)cc3)C2=O)ccc1OCCS(=O)(=O)CC(C)(C)O` (centres unmarked) [Example 75], the inhibitory constant (Ki) came to 13 nM.

On to `Cc1cc(N2CCC(Oc3ccc(C(F)(F)F)cc3)C2=O)ccc1OCC(C)(C)O` (centres unmarked) [Example 76], for which the Ki was 26 nM.

For the compound `Cc1cc(N2CCC(Oc3ccc(OC(F)(F)F)cc3)C2=O)ccc1OCC(C)(C)O` (centres unmarked) [Example 77], the Ki came out at 15 nM.

`Cc1cc(N2CC[C@H](Oc3ccc(OC(F)(F)F)cc3)C2=O)ccc1OCC(C)(C)O` [Example 78] returned a Ki of 6000 nM.

Consider `Cc1cc(N2CC[C@@H](Oc3ccc(OC(F)(F)F)cc3)C2=O)ccc1OCC(C)(C)O` [Example 79], for which the Ki was found to be 11 nM.

`Cc1cc(N2CCC(Oc3ccc(-c4ccccc4)cc3)C2=O)ccc1OCC(C)(C)O` (centres unmarked) [Example 80] showed an inhibition constant Ki of 4 nM.

Compound `Cc1cc(N2CCC(Oc3ccc(CC(F)(F)F)cc3)C2=O)ccc1OCC(C)(C)O` (centres unmarked) [Example 81] displayed a Ki of 22 nM.

As for `Cc1cc(N2CCC(Oc3ccc(C4CC4)cc3)C2=O)ccc1OCC(C)(C)O` (centres unmarked) [Example 82], the affinity, expressed as Ki, was 11 nM.

As for `Cc1cc(N2CC[C@H](Oc3ccc(C4CC4)cc3)C2=O)ccc1OCC(C)(C)O` [Example 83], the Ki stood at 168 nM.

Compound `Cc1cc(N2CC[C@@H](Oc3ccc(C4CC4)cc3)C2=O)ccc1OCC(C)(C)O` [Example 84] returned an inhibition constant (Ki) of 5 nM.

Compound `Cc1cc(N2CCC(Oc3ccc(I)cc3)C2=O)ccc1OCC(C)(C)O` (centres unmarked) [Example 85] came in with a Ki of 22 nM.

Compound `Cc1cc(N2CCC(Oc3ccc(C(F)(F)F)cn3)C2=O)ccc1OCC(C)(C)O` (centres unmarked) [Example 86] displayed an inhibition constant Ki of 5000 nM.

On to `Cc1cc(N2CCC(Oc3ccc(Br)nc3)C2=O)ccc1OCC(C)(C)O` (centres unmarked) [Example 87], for which the affinity, expressed as Ki, was 7000 nM.

Regarding `Cc1cc(N2CCC(Oc3ccc(-c4ccccc4)nc3)C2=O)ccc1OCC(C)(C)O` (centres unmarked) [Example 88], the affinity, expressed as Ki, was 45 nM.

`Cc1cc(N2CCC(Oc3ccc(-c4ccncc4)cc3)C2=O)ccc1OCC(C)(C)O` (centres unmarked) [Example 89] showed a Ki of 37 nM.

`Cc1cc(N2CCC(Oc3ccc(-c4ccccc4)cc3)C2=O)ccc1OCC1(O)CC(F)(F)C1` (centres unmarked) [Example 90] yielded a Ki of 10 nM.

Compound `CCS(=O)(=O)C[C@@H](O)COc1ccc(N2CCC(Oc3ccc(-c4ccccc4)cc3)C2=O)cc1C` (some centres unmarked) [Example 91] displayed a Ki of 7 nM.

`CCS(=O)(=O)C[C@@H](O)COc1ccc(N2CCC(Oc3ccc(-c4ccc(F)cc4)cc3)C2=O)cc1C` (some centres unmarked) [Example 92] yielded an inhibitory constant (Ki) of 22 nM.

`CCS(=O)(=O)C[C@@H](O)COc1ccc(N2CCC(Oc3ccc(C4CC4)cc3)C2=O)cc1C` (some centres unmarked) [Example 93] yielded an inhibitory constant (Ki) of 57 nM.

The compound `CCS(=O)(=O)C[C@@H](O)COc1ccc(N2CCC(Oc3ccc(OC(F)(F)F)cc3)C2=O)cc1C` (some centres unmarked) [Example 94] gave a Ki of 714 nM.

Take `Cc1cc(N2CCC(Oc3ccc(-c4ccccc4)cc3)C2=O)ccc1OC[C@H](O)CS(C)(=O)=O` (some centres unmarked) [Example 95]: the Ki came out at 15 nM.

With `Cc1cc(N2CCC(Oc3ccc(-c4ccc(F)cc4)cc3)C2=O)ccc1OC[C@H](O)CS(C)(=O)=O` (some centres unmarked) [Example 96], the inhibition constant (Ki) amounted to 22 nM.

`Cc1cc(N2CCC(Oc3ccc(C4CC4)cc3)C2=O)ccc1OC[C@H](O)CS(C)(=O)=O` (some centres unmarked) [Example 97] had an inhibition constant (Ki) of 79 nM.

`Cc1cc(N2CCC(Oc3ccc(C(F)(F)F)cc3)C2=O)ccc1OC[C@H](O)CS(C)(=O)=O` (some centres unmarked) [Example 98]: the Ki was determined as 1430 nM.

What is called Ki is a measure of affinity in units of concentration, obtained from inhibition or displacement. Read a high Ki as lower affinity.
